In patent US20260001889A1, “COMPOSITIONS USEFUL FOR MODULATING SPLICING” (Skyhawk Therapeutics, Inc., priority 2022, published 2026):

Columns and labels:
total ATXN3 protein = test: ATXN3 Total Protein Assay (Mesoscale Discovery, SK-N-MC cells); assay type: cell-based, Human; details: incubation for 48 hours, MSD assay
Procedure: Example 35: ATXN3 Total Protein Assay
Human neuroblastoma SK-N-MC cells were seeded at 10,000 cells/well in 384 well plates one day prior to compound treatment. The concentrations of compounds were tested at appropriate doses ranging from 30 μM to 0.6 nM. After incubation for 48 hours, the cells were lysed with 25 μL of lysis buffer containing protease inhibitors, and total ATXN3 protein levels were assessed by Mesoscale Discovery (MSD) assay developed with one pair of anti-ATXN3 antibodies. The capture and detect antibodies were raised in mouse and rabbit respectively. Anti-rabbit MSD-ST antibody was used for secondary antibody.
ATXN3 recombinant protein was used for standards. The readouts were captured with 35 μL of MSD read buffer and multi-array 384-well high binding plates.

[1] = system: ATXN3 transcripts containing exon 4; test: ATXN3 Quantitative Splicing Assay (qPCR, E4E5 primers/probe); assay type: cell-based; details: Homo sapiens, SK-N-MC cells, compounds for 24 h
Procedure: Example 34: ATXN3 Quantitative Splicing Assay
Human neuroblastoma SK-N-MC cells were plated in 384-well plates at 20,000 cells/well. Twenty-four hours after plating, cells were treated with compounds for 24 h at appropriate concentrations ranging from 30 μM to 0.6 nM (0.300 DMSO). Treated cells were lysed in 15 μL of lysis buffer, and cDNA was synthesized using the Fast Advanced Cells-to-Ct kit. Two […] of each cDNA was used in qPCR reactions to confirm the exon 4 skipped transcripts of ATXN3. A second set of primers/probe E4E5 was used to detect the transcripts containing exon 4. The third set of primers/probe E8E9 was used to detect total gene level of ATXN3. The qPCR reactions were prepared in 384-well plates in 10 μL volume, using TaqMan™ Fast Advanced Master Mix with primers and probes shown in the table below. Reactions were run in a Quant Studio 6 qPCR instrument with default settings.
The primers and probes are listed below in Table 4.

ATXN3-HiBiT protein = test: ATXN3 Total Protein Assay (Kelly-ATXN3-HiBiT luminescence); assay type: cell-based; details: Kelly-ATXN3-HiBiT cells, 48 h after addition of compound
Method in brief: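 Kelly cells with homozygous C-terminal HiBiT knock-in on endogenous ATXN3, 2000 per well, dosed 24 h after seeding. HiBiT lytic luminescence read 48 h after compound; sister plate read with CellTiter-Glo for viability; fold change vs DMSO.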

SMILES | IC50 (total ATXN3 protein) | IC50 [1] | EC50 (ATXN3-HiBiT protein)
Cc1c(C[C@H](C)N)oc2c(NCc3ccncc3)cc(Cl)nc12 (single isomer, unassigned) [Compound 3] | 0.501 to 5 µM | 0.501 to 5 µM | –
Cc1c(C[C@@H](C)N)oc2c(NCc3ccncc3)cc(Cl)nc12 (single isomer, unassigned) [Compound 4] | 0.501 to 5 µM | 5 to 10 µM | –
CC(N)Cc1cc2nc(Cl)cc(NCc3ccncc3)c2o1 (stereo not drawn) [Compound 1, 2-(2-aminopropyl)-5-chloro-7-{[(4-pyridyl)methyl]amino}-1-oxa-4-azaindene] | 10 to 40 µM | 10 to 40 µM | –
CC(N)Cc1cc2nc(Cl)cc(NCc3ccccc3)c2o1 (stereo not drawn) [Compound 2, 2-(2-aminopropyl)-7-benzylamino-5-chloro-1-oxa-4-azaindene] | 5 to 10 µM | 5 to 10 µM | –
Cc1coc2c(NCc3ccncc3)cc(Cl)nc12 [Compound 5, [(4-pyridyl)methyl](5-chloro-3-methyl-1-oxa-4-aza-7-indenyl)amine] | 10 to 40 µM | 10 to 40 µM | –
Clc1cc(NCc2ccncc2)c2occc2n1 [Compound 6, 5-chloro-N-(pyridin-4-ylmethyl)furo[3,2-b]pyridin-7-amine] | 10 to 40 µM | 10 to 40 µM | –
Cc1c(CC(C)N)oc2c(NCc3ccncc3)cc(Cl)nc12 (stereo not drawn) [Compound 7, 2-(2-aminopropyl)-5-chloro-3-methyl-7-{[(4-pyridyl)methyl]amino}-1-oxa-4-azaindene] | 0.501 to 5 µM | 0.501 to 5 µM | –
Cc1c(C[C@H](C)N)oc2c(NCc3ccccc3)cc(Cl)nc12 [Compound 8, 2-[(S)-2-aminopropyl]-7-benzylamino-5-chloro-3-methyl-1-oxa-4-azaindene] | 0.501 to 5 µM | 0.501 to 5 µM | –
C[C@H](N)C(F)(F)c1oc2c(NCc3cccs3)cc(Cl)nc2c1Br [Compound 187, 2-[(S)-2-amino-1,1-difluoropropyl]-3-bromo-5-chloro-7-thenylamino-1-oxa-4-azaindene] | – | 1e-05 to 0.1 µM | 0.01 to 100 nM
C#Cc1c(C[C@@H](N)CCOC(F)F)oc2c(NCc3cccs3)cc(Cl)nc12 [Compound 197, 2-[(S)-2-amino-4-difluoromethoxybutyl]-5-chloro-3-ethynyl-7-thenylamino-1-oxa-4-azaindene] | – | 1e-05 to 0.1 µM | 0.01 to 100 nM
C[C@H](N)Cc1oc2c(NCc3ccc(F)cc3F)cc(Cl)nc2c1Br [Compound 350, 2-[(S)-2-aminopropyl]-3-bromo-5-chloro-7-{[(2,4-difluorophenyl)methyl]amino}-1-oxa-4-azaindene] | – | 0.501 to 5 µM | 501 to 5000 nM
C[C@H](N)Cc1oc2c(NCc3ccc(Cl)s3)cc(Cl)nc2c1Br [Compound 353, 2-[(S)-2-aminopropyl]-3-bromo-5-chloro-7-{[(5-chloro-2-thienyl)methyl]amino}-1-oxa-4-azaindene] | – | 0.501 to 5 µM | 501 to 5000 nM
OCc1oc2c(NCc3cccs3)cc(Cl)nc2c1Br [Compound 354, (3-bromo-5-chloro-7-thenylamino-1-oxa-4-aza-2-indenyl)methanol] | – | 5 to 10 µM | 5000 to 10000 nM
N[C@@H]1COC[C@H]1c1oc2c(NCc3cccs3)cc(Cl)nc2c1Br [Compound 374, 2-[(3S,4S)-4-aminotetrahydro-3-furyl]-3-bromo-5-chloro-7-thenylamino-1-oxa-4-azaindene] | – | 10 to 40 µM | –
N[C@H]1CCC(F)(F)C[C@@H]1c1oc2c(NCc3cccs3)cc(Cl)nc2c1Br [Compound 380, 2-[(1S,2S)-2-amino-5,5-difluorocyclohexyl]-3-bromo-5-chloro-7-thenylamino-1-oxa-4-azaindene] | – | 0.101 to 0.5 µM | –
C#Cc1c([C@H]2CCCC[C@@H]2N)oc2c(NCc3cccs3)cc(Cl)nc12 [Compound 385, 2-[(1S,2S)-2-aminocyclohexyl]-5-chloro-3-ethynyl-7-thenylamino-1-oxa-4-azaindene] | – | 1e-05 to 0.1 µM | –
Cc1c(C[C@H](C)N)oc2c(NCc3cccs3)cc(F)nc12 [Compound 404, 2-[(S)-2-aminopropyl]-5-fluoro-3-methyl-7-thenylamino-1-oxa-4-azaindene] | – | 0.101 to 0.5 µM | –
